For orientation: pIC50 means the IC50 on a negative log10 scale, so that one unit is a factor of ten. One may read the AC50 as the concentration giving half of the maximal activity seen.

In test [1] the test system is HTT mRNA. The experiment in a line: Splicing RT-qPCR assay, HTT canonical (CJ) and alternative (AJ) junction mRNA. The test is classed as cell-based, human. The note with it: for pIC50: canonical junction mRNA; for AC50: alternative junction mRNA, read-out: HTT AJ (AC50, increase in AJ mRNA). In outline: (§1)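 Cmpd 24 h, 37 °C/5% CO2; 11-pt 3x serial dilution from 10 uM final; DMSO max 0.25%. Cells: A673 (DMEM/10% FBS, pre-adhered 24 h) or K562 (IMDM/10% FBS). Lyse, DNase I, then 1-step RT-qPCR for CJ and AJ; housekeeping-normalized.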
(In general: Real-time PCR tracks product formation cycle by cycle.)

For test [2], the system named is MYB mRNA. The experiment in a line: Splicing RT-qPCR assay, MYB canonical (CJ) and alternative (AJ) junction mRNA. The class given is cell-based, human. The note with it: for pIC50: canonical junction mRNA; for AC50: alternative junction mRNA, read-out: MYB AJ (AC50, increase in AJ mRNA). In outline:
as §1

The mark [3] stands for this setting: Homo sapiens, 24 h, RT-qPCR, A673 or K562 cells, 24 hours treatment, read-out: HTT CJ (IC50, decrease in CJ mRNA).
[4] abbreviates: Homo sapiens, qPCR panel, read-out: HTT CJ (decrease in CJ mRNA levels, IC50).
[5] abbreviates: Homo sapiens, RT-qPCR, A673 or K562 cells, 24 hours treatment.
Setting [6] is: Homo sapiens, qPCR panel, read-out: MYB CJ (decrease in CJ mRNA levels, IC50).
Setting [7] is: Homo sapiens, RT-qPCR, A673 or K562 cells, 24 hours treatment, read-out: MYB CJ (IC50, decrease in CJ mRNA).
[8] abbreviates: RT-qPCR, A673 or K562 cells, 24 hours treatment.

The structures appear in SMILES notation. pIC50: −log10 of the molar value. Like-named read-outs stand apart in the source and are kept apart here. Some results are limits rather than exact numbers.

For the compound `Cc1nc2c(C)c(O)c(-c3cnc4cc(N5CCC(NC6CC6)C5)ccc4n3)cc2o1` (stereo not drawn) [Compound 182, 6-[6-[3-(cyclopropylamino)pyrrolidin-1-yl]quinoxalin-2-yl]-2,4-dimethyl-1,3-benzoxazol-5-ol], the pIC50 in test [1] (setting [3]), in test [1] (setting [4]), in test [2] (setting [6]) and in test [2] (setting [7]) was greater than 7.00 in each case. Further, the AC50 in test [1] (setting [5]) and in test [2] (setting [5]) was less than 100 nM in each case.
Take `CNC1CCN(c2cnc3nc(-c4cc5cn(C)nc5c(C)c4O)ccc3n2)C1` (stereo not drawn) [Compound 192, 2,7-dimethyl-5-{2-[3-(methylamino)337pyrrolidine-1-yl]pyrido[2,3-b]pyrazin-6-yl}indazol-6-ol]: the pIC50 in test [1] (setting [3]), in test [1] (setting [4]), in test [2] (setting [6]) and in test [2] (setting [7]) was 6.00 to 7.00 in each case. Besides, the half-maximal activity concentration (AC50) in test [1] (setting [5]) and in test [2] (setting [5]) was 100 to 1000 nM in each case.
In the case of `CNC1CCN(c2cnc3nc(-c4cc5cn(C)nc5c(C)c4O)cc(Cl)c3n2)C1` (stereo not drawn) [Compound 193, 5-{8-chloro-2-[3-(methylamino)355pyrrolidine-1-yl]pyrido[2,3-b]pyrazin-6-yl}-2,7-dimethylindazol-6-ol], the pIC50 in test [1] (setting [3]) is 6.00 to 7.00; in test [1] (setting [4]), 6.00 to 7.00; in test [2] (setting [6]), greater than 7.00; in test [2] (setting [7]), greater than 7.00. Besides, the results for the AC50 in test [1] (setting [5]) and in test [2] (setting [5]) were 100 to 1000 nM and less than 100 nM, respectively.
`CNC1CCN(c2cnc3nc(-c4cc5cn(C)nc5c(C)c4O)cc(OC)c3n2)C1` (stereo not drawn) [Compound 194, 5-{8-methoxy-2-[3-(methylamino)360pyrrolidine-1-yl]pyrido[2,3-b]pyrazin-6-yl}-2,7-dimethylindazol-6-ol]: the pIC50 in test [1] (setting [3]), in test [1] (setting [4]), in test [2] (setting [6]) and in test [2] (setting [7]) was 5.00 to 6.00 in each case. The AC50 in test [1] (setting [5]) is greater than 10000 nM; in test [2] (setting [5]), 1000 to 10000 nM.
As for `Cc1c(O)c(-c2ccc3nc(N4C[C@@H](C)N[C@@H](C)C4)cnc3n2)cc2cn(C)nc12` [Compound 195, 5-{2-[(3R,5S)-3,5-dimethylpiperazin-1-yl]pyrido[2,3-b]pyrazin-6-yl}-2,7-dimethylindazol-6-ol], the pIC50 was 5.00 to 6.00 in test [1] (setting [3]), 5.00 to 6.00 in test [1] (setting [4]), 6.00 to 7.00 in test [2] (setting [6]) and 6.00 to 7.00 in test [2] (setting [7]). Also, the AC50 is greater than 10000 nM in test [1] (setting [5]) and 100 to 1000 nM in test [2] (setting [5]).
For `Cc1c(O)c(-c2ccc3nc(N4CCNCC4)cnc3n2)cc2cn(C)nc12` [Compound 197, 2,7-dimethyl-5-[2-(piperazin-1-yl)pyrido[2,3-b]pyrazin-6-yl]indazol-6-ol], the pIC50 in test [1] (setting [3]), in test [1] (setting [4]), in test [2] (setting [6]) and in test [2] (setting [7]) was 6.00 to 7.00 throughout. The AC50 in test [1] (setting [5]) and in test [2] (setting [5]) was 100 to 1000 nM each time.
Turning to `Cc1c(O)c(-c2ccc3nc(N4CCC(N(C)C)CC4)cnc3n2)cc2cn(C)nc12` [Compound 198], the pIC50 in test [1] (setting [3]) is 5.00 to 6.00; in test [1] (setting [4]), greater than 7.00; in test [2] (setting [6]), greater than 7.00; in test [2] (setting [7]), 6.00 to 7.00. In addition, the AC50 in test [1] (setting [5]) was greater than 10000 nM; in test [2] (setting [5]), 100 to 1000 nM.
Consider `Cn1cc2cc(-c3ccc4cc(N5CC[C@@H](NC(C)(C)C)C5)cnc4n3)c(O)cc2n1` [Compound 199], for which the pIC50 in test [1] (setting [3]), in test [1] (setting [4]), in test [2] (setting [6]) and in test [2] (setting [7]) was 5.00 to 6.00 each time. For the same compound, the AC50 in test [1] (setting [5]) and in test [2] (setting [5]) was 1000 to 10000 nM each time.
Consider `Cc1cn2cc(-c3cnc4nc(C5CCNCC5)ccc4c3)cc(C)c2n1` [Compound 201], for which the pIC50 was less than 5.00 in test [1] (setting [3]), greater than 7.00 in test [1] (setting [4]), greater than 7.00 in test [2] (setting [6]) and less than 5.00 in test [2] (setting [7]). Besides, the AC50 in test [1] (setting [5]) and in test [2] (setting [5]) was greater than 10000 nM throughout.
For `CN[C@@H]1CCN(c2cnc3nc(-c4cc(F)c5nc(C)cn5c4)ncc3c2)C1` [Compound 202, (3R)-1-(2-{8-fluoro-2-methylimidazo[1,2-a]pyridin-6-yl}pyrido[2,3-d]pyrimidin-6-yl)-N-methylpyrrolidin-3-amine], the negative-log IC50 (pIC50) in test [1] (setting [3]) is 6.00 to 7.00; in test [1] (setting [4]), 6.00 to 7.00; in test [2] (setting [6]), greater than 7.00; in test [2] (setting [7]), greater than 7.00. In addition, the AC50 in test [1] (setting [5]) and in test [2] (setting [5]) was 100 to 1000 nM each time.
In the case of `CC1CN(c2cnc3nc(-c4cc(F)c5nn(C)cc5c4)cc(Cl)c3c2)CCN1` (stereo not drawn) [Compound 203, 4-chloro-2-(7-fluoro-2-methyl-2H-indazol-5-yl)-6-(3-methylpiperazin-1-yl)-1,8-naphthyridine 2,2,2-trifluoroacetate], the pIC50 in test [1] (setting [3]), in test [1] (setting [4]), in test [2] (setting [6]) and in test [2] (setting [7]) was 6.00 to 7.00 in each case. Besides, the AC50 in test [1] (setting [5]) was 1000 to 10000 nM; in test [2] (setting [5]), less than 100 nM.
Regarding `Cc1c(O)c(-c2cc(Cl)c3cc(N(C)C4CCNC4)cnc3n2)cc2cn(C)nc12` (stereo not drawn) [Compound 204, 5-[4-chloro-6-(367pyrrolidine-3-ylamino)-1,8-naphthyridin-2-yl]-2,7-dimethylindazol-6-ol], the pIC50 in test [1] (setting [3]) is 5.00 to 6.00; in test [1] (setting [4]), 5.00 to 6.00; in test [2] (setting [6]), 6.00 to 7.00; in test [2] (setting [7]), 6.00 to 7.00. Besides, the AC50 is 1000 to 10000 nM in test [1] (setting [5]) and 100 to 1000 nM in test [2] (setting [5]).
As for `Cc1cn2nc(-c3ccc4cc(N(C)C5CCNCC5)cnc4n3)cc(C)c2n1` [Compound 205, 7-{2,8-dimethylimidazo[1,2-b]pyridazin-6-yl}-N-methyl-N-(piperidin-4-yl)-1,8-naphthyridin-3-amine], the pIC50 is less than 5.00 in test [1] (setting [3]), less than 5.00 in test [1] (setting [4]), 5.00 to 6.00 in test [2] (setting [6]) and 5.00 to 6.00 in test [2] (setting [7]). Also, the AC50 in test [1] (setting [5]) is greater than 10000 nM; in test [2] (setting [5]) it was 1000 to 10000 nM.
As to `C[C@@H]1CN(c2cnc3nc(-c4cc5cn(C)nc5c(F)c4O)ccc3c2)C[C@H](C)N1` [Compound 206], the pIC50 in test [1] (setting [3]), in test [1] (setting [4]), in test [2] (setting [6]) and in test [2] (setting [7]) was greater than 7.00 throughout. Besides, the AC50 in test [1] (setting [5]) was 100 to 1000 nM; in test [2] (setting [5]) it was less than 100 nM.
For the compound `Cc1c(O)c(-c2cc(Cl)c3cc(N4C[C@@H](C)N[C@@H](C)C4)cnc3n2)cc2cn(C)nc12` [Compound 207, 5-{4-chloro-6-[(3R,5S)-3,5-dimethylpiperazin-1-yl]-1,8-naphthyridin-2-yl}-2,7-dimethylindazol-6-ol], the AC50 in test [1] (setting [8]) was 100 to 1000 nM; in test [2] (setting [8]), less than 100 nM. Besides, the pIC50 in test [1] (RT-qPCR, A673 or K562 cells, 24 hours treatment, read-out: HTT CJ (IC50, decrease in CJ mRNA)) was greater than 7.00; in test [1] (qPCR panel, read-out: HTT CJ (decrease in CJ mRNA levels, IC50)), greater than 7.00; in test [2] (RT-qPCR, A673 or K562 cells, 24 hours treatment, read-out: MYB CJ (IC50, decrease in CJ mRNA)) it was greater than 7.00; in test [2] (qPCR panel, read-out: MYB CJ (decrease in CJ mRNA levels, IC50)), greater than 7.00.
Regarding `C[C@@H]1CN(c2cnc3nc(-c4cc5cn(C)nc5cc4O)cc(Cl)c3c2)C[C@H](C)N1` [Compound 208], the pIC50 in test [1] (setting [3]) was 5.00 to 6.00; in test [1] (setting [4]), 5.00 to 6.00; in test [2] (setting [6]) it was greater than 7.00; in test [2] (setting [7]), greater than 7.00. In addition, the figures for the AC50 in test [1] (setting [5]) and in test [2] (setting [5]) were 1000 to 10000 nM and less than 100 nM, respectively.
`Cn1cc2cc(-c3cc(Cl)c4cc(N5CCNC(C6CC6)C5)cnc4n3)cc(F)c2n1` (stereo not drawn) [Compound 209, 4-chloro-6-(3-cyclopropylpiperazin-1-yl)-2-(7-fluoro-2-methylindazol-5-yl)-1,8-naphthyridine]: the pIC50 in test [1] (setting [3]) was 5.00 to 6.00; in test [1] (setting [4]), 5.00 to 6.00; in test [2] (setting [6]) it was 6.00 to 7.00; in test [2] (setting [7]), 6.00 to 7.00. Besides, the AC50 in test [1] (setting [5]) lay within 1000 to 10000 nM; in test [2] (setting [5]), 100 to 1000 nM.
